From ChEMBL document CHEMBL2311402 (J Med Chem, 2013)
Each block holds one compound with its values, some of them ahead of it.

Columns and labels:
Tubulin (Homo sapiens) = Tubulin (Homo sapiens) (UniProt P68371+Q9H4B7+P0DPH7+P68366+Q13509+Q71U36+P04350+Q3ZCM7+P07437+P68363+Q9BQE3+Q6PEY2+Q13885+Q9BVA1+Q9BUF5); assay: Displacement of [3H]colchicine from tubulin (unknown origin) at 5 uM after 10 mins by DEAE-cellulose filter method; format: protein-complex assay
NCI/ADR-RES = assay: Cytotoxicity against human NCI/ADR-RES cells assessed as growth inhibition by trypan blue exclusion assay; format: functional, cell-based
CYP2C9 = CYP2C9 (Homo sapiens, UniProt P11712); assay: Inhibition of human CYP2C9 at 1 uM; format: ADME
CYP3A4 = CYP3A4 (Homo sapiens, UniProt P08684); assay: Inhibition of human CYP3A4 at 1 uM; format: ADME
CYP1A2 = molecular target: T1, CYP1A2 (Homo sapiens, UniProt P05177); assay: Inhibition of human CYP1A2 at 1 uM; format: ADME
T1 sequence (P05177 whole entry): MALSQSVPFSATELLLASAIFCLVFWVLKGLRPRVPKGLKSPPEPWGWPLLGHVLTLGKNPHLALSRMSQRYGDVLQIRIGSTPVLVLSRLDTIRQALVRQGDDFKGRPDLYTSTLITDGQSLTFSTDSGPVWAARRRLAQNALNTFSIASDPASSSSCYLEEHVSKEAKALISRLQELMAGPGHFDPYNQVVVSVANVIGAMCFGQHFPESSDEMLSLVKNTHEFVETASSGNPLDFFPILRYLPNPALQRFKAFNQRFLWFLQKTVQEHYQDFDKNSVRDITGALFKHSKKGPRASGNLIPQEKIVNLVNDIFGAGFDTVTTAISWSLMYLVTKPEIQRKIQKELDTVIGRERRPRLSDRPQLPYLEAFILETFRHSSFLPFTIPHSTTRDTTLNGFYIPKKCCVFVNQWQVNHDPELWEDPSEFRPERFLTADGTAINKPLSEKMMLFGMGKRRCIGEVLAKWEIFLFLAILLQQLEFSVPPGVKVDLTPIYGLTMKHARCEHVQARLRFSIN

CYP2C19 = CYP2C19 (Homo sapiens, UniProt P33261); assay: Inhibition of human CYP2C19 at 1 uM; format: ADME
CYP2D6 = CYP2D6 (Homo sapiens, UniProt P10635); assay: Inhibition of human CYP2D6 at 1 uM; format: ADME
U-87 MG = assay: Induction of apoptosis in human U87MG assessed as reduction in mitochondrial membrane potential at 30 uM after 24 hrs by JC-1 staining-based fluorescence microscopy; format: functional, U-87MG ATCC; set-up: scale not given: the % may be the effect or the level left
HT-29 = assay: cells; settings: Homo sapiens, HT-29, 48 h
Description: Cytotoxicity against human HT-29 cells assessed as growth inhibition after 48 hrs by MTT assay

HCT-116 = assay: cells; settings: Homo sapiens, HCT-116, 72 h
Description: Cytotoxicity against human HCT116 assessed as growth inhibition after 72 hrs by Celltiter-Glo luminescent assay

[1] = Cytotoxicity against human MESSA/DX5 cells assessed as growth inhibition after 72 hrs by Celltiter-Glo luminescent assay; format: functional, cell-based; settings: MES-SA/Dx5, 72 h
A549 = assay: cells; settings: Homo sapiens, A549, 48 h
Description: Cytotoxicity against human A549 cells assessed as growth inhibition after 48 hrs by MTT assay

HeLa = assay: cells; settings: Homo sapiens, 48 h
Description: Cytotoxicity against human HeLa cells assessed as growth inhibition after 48 hrs by MTT assay

HCT-15 = assay: cells; settings: Homo sapiens, HCT-15, 72 h
Description: Cytotoxicity against human HCT15 cells assessed as growth inhibition after 72 hrs by Celltiter-Glo luminescent assay

Chain of CYP3A4 (P08684 whole entry): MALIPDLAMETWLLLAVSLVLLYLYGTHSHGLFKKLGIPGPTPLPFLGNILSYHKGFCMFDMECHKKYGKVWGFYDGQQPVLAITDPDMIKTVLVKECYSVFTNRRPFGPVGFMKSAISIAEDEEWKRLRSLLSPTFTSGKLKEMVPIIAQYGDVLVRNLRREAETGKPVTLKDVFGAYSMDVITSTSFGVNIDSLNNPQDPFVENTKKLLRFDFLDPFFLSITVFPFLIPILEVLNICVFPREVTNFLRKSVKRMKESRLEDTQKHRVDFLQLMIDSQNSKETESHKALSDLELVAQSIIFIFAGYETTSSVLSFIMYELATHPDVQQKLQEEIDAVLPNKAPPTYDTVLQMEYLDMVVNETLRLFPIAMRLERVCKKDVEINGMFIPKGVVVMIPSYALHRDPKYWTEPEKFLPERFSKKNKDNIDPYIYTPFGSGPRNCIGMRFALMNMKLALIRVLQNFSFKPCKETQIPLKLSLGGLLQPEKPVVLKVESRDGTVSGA
Chain of CYP2C19 (P33261 whole entry): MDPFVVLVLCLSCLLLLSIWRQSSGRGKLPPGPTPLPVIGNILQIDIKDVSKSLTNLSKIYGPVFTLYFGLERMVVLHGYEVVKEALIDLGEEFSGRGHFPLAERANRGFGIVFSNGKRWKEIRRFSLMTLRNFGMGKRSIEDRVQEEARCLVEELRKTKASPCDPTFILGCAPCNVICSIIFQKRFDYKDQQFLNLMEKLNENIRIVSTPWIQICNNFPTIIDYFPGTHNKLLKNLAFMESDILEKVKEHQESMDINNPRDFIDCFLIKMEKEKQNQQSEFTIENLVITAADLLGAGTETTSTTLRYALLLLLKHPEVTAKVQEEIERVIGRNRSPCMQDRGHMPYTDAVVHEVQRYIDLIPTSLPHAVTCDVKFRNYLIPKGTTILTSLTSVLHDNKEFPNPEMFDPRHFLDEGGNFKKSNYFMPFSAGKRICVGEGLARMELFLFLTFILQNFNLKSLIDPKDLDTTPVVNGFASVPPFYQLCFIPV
Chain of CYP2D6 (P10635 whole entry): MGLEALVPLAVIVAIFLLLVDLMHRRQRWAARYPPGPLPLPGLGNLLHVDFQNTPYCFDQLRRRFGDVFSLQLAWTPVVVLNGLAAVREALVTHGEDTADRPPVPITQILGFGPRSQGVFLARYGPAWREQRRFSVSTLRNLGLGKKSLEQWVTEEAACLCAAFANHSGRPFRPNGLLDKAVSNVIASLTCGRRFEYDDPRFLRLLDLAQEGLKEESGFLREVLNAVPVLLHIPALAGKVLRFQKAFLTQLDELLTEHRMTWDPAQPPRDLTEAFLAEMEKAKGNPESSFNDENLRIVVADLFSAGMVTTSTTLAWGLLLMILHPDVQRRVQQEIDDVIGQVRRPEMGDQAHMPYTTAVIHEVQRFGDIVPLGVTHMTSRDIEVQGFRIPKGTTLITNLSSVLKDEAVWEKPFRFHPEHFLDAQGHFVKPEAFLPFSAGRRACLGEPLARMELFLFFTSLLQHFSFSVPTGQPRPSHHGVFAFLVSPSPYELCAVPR
Chain of CYP2C9 (P11712 whole entry): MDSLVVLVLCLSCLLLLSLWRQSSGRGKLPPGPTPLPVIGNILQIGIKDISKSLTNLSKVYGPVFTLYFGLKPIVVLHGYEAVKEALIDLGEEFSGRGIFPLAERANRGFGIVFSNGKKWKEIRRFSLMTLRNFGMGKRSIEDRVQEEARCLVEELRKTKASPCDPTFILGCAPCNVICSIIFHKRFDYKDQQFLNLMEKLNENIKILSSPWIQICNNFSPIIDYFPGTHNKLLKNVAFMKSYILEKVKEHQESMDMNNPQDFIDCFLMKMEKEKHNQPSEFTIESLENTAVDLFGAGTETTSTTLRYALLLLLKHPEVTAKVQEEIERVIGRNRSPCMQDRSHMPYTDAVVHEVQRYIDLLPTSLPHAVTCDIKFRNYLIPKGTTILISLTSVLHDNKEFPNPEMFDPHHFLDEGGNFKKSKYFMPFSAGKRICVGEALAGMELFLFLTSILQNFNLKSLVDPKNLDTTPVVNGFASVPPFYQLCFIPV

SMILES: COc1cc(Sc2c(-c3cc[nH]n3)[nH]c3ccccc23)cc(OC)c1OC
inhibition (Tubulin (Homo sapiens)): 78%

SMILES: COc1cc(C(=O)c2c(-c3cc[nH]c3)[nH]c3ccccc23)cc(OC)c1OC
inhibition (Tubulin (Homo sapiens)): 71%

SMILES: CCC1=C[C@@H]2CN(C1)Cc1c([nH]c3ccccc13)[C@@](C(=O)OC)(c1cc3c(cc1OC)N(C)[C@H]1[C@@](O)(C(=O)OC)[C@H](OC(C)=O)[C@]4(CC)C=CCN5CC[C@]31[C@@H]54)C2 [VINORELBINE]
IC50 (NCI/ADR-RES): 5000 nM

SMILES: COc1cc(C(=O)c2c(-c3ccc[nH]3)[nH]c3ccccc23)cc(OC)c1OC
inhibition (Tubulin (Homo sapiens)): 79%

SMILES: COc1cc(C(O)c2c(-c3cc[nH]c3)[nH]c3ccccc23)cc(OC)c1OC (stereo not drawn)
inhibition (Tubulin (Homo sapiens)): 70%

SMILES: N#CC(C#N)=NNc1cccc(Cl)c1 [CARBONYL CYANIDE M-CHLOROPHENYLHYDRAZONE]
Activity (U-87 MG): 50%

SMILES: COc1cc(C(=O)c2c(-c3ccoc3)[nH]c3ccccc23)cc(OC)c1OC
inhibition (Tubulin (Homo sapiens)): 77%

SMILES: CC[C@]1(O)C[C@@H]2CN(CCc3c([nH]c4ccccc34)[C@@](C(=O)OC)(c3cc4c(cc3OC)N(C)[C@H]3[C@@](O)(C(=O)OC)[C@H](OC(C)=O)[C@]5(CC)C=CCN6CC[C@]43[C@@H]65)C2)C1 [VINBLASTINE]
IC50 (HT-29): 30 nM
IC50 (HCT-116): 3 nM
IC50 [1]: 144 nM
IC50 (A549): 20 nM
IC50 (HeLa): 10 nM
IC50 (HCT-15): 24 nM

SMILES: CC(=O)O[C@H]1C(=O)[C@@]2(C)[C@H]([C@H](OC(=O)c3ccccc3)[C@]3(O)C[C@H](OC(=O)[C@H](O)[C@@H](NC(=O)c4ccccc4)c4ccccc4)C(C)=C1C3(C)C)[C@]1(OC(C)=O)CO[C@@H]1C[C@@H]2O [PACLITAXEL]
IC50 (HCT-15): 90 nM

SMILES: COc1cc(C(=O)c2c(-c3ccco3)[nH]c3ccccc23)cc(OC)c1OC
inhibition (Tubulin (Homo sapiens)): 78%

Now from value to compound:

inhibition at 1 µM (CYP2C9): 93.1%
inhibition at 1 µM (CYP3A4): 51.4%
inhibition at 1 µM (CYP1A2): < 5%
inhibition (Tubulin (Homo sapiens)): 83%
inhibition at 1 µM (CYP2C19): 83.9%
inhibition at 1 µM (CYP2D6): < 5%
SMILES: COc1cc(Sc2c(-n3cncn3)[nH]c3ccccc23)cc(OC)c1OC

inhibition (Tubulin (Homo sapiens)): 74%
SMILES: COc1cc(Sc2c(-c3ccc(F)cc3)[nH]c3ccccc23)cc(OC)c1OC

inhibition at 1 µM (CYP2C9): 102%
inhibition at 1 µM (CYP3A4): 76.4%
inhibition at 1 µM (CYP1A2): 23.4%
inhibition (Tubulin (Homo sapiens)): 88%
inhibition at 1 µM (CYP2C19): 84.9%
SMILES: COc1cc(Sc2c(-c3cccnc3)[nH]c3ccccc23)cc(OC)c1OC

inhibition (Tubulin (Homo sapiens)): 81%
SMILES: COc1cc(Sc2c(-c3cn[nH]c3)[nH]c3ccccc23)cc(OC)c1OC

inhibition at 1 µM (CYP2C9): 100%
inhibition at 1 µM (CYP3A4): 58%
inhibition at 1 µM (CYP1A2): 14.5%
inhibition (Tubulin (Homo sapiens)): 91%
inhibition at 1 µM (CYP2C19): 100%
inhibition at 1 µM (CYP2D6): 43.1%
SMILES: COc1cc(Sc2c(-c3ccncc3)[nH]c3ccccc23)cc(OC)c1OC

inhibition (Tubulin (Homo sapiens)): 72%
SMILES: COc1cc(Sc2c(-c3nccs3)[nH]c3ccccc23)cc(OC)c1OC

inhibition (Tubulin (Homo sapiens)): 74%
SMILES: COc1cc(Sc2c(-c3ccccc3F)[nH]c3ccccc23)cc(OC)c1OC

inhibition at 1 µM (CYP2C9): 95.9%
inhibition at 1 µM (CYP3A4): 94.5%
inhibition at 1 µM (CYP1A2): 22.9%
inhibition (Tubulin (Homo sapiens)): 92%
inhibition at 1 µM (CYP2C19): 82.5%
inhibition at 1 µM (CYP2D6): 10.6%
SMILES: COc1cc(Sc2c(-n3ccnc3)[nH]c3ccccc23)cc(OC)c1OC

inhibition (Tubulin (Homo sapiens)): 75%
SMILES: COc1cc(Sc2c(-c3cccc(F)c3)[nH]c3ccccc23)cc(OC)c1OC
